# Results as given in US9242951B2, “Covalent inhibition of bacterial quorum sensing” (priority 2009, dated 2016).
# Like-named read-outs stand apart in the source and are kept apart here.
# Key:
# [1] = molecular target: T1, LasR (Pseudomonas aeruginosa, UniProt P25084); test: E. coli DH5-alpha LasR agonist/antagonist assay (PlasI-lacZ, beta-galactosidase); type: cell-based, P. aeruginosa
# T1 construct: expressed in transfected cells; host or cells: E. coli DH5-alpha (pJN105L + pSC11 PlasI-lacZ)
# Description: E. coli DH5-Alpha LasR Agonist/Antagonist Assay.
# E. coli DH5-alpha harboring the LasR expression vector. pJN105L, and a plasmid-borne PlasI-lacZ fusion (pSC11) (Lee, J. H., Lequette, Y. & Greenberg, E. P. Activity of purified QscR, a Pseudomonas aeruginosa orphan quorum-sensing transcription factor. Mol Microbiol 59, 602-9 (2006)) was used to quantify quorum sensing inhibition by measuring expression levels of beta-galactosidase. Bacteria were incubated overnight in LB medium containing 100 micro-g/mL of ampicillin and 15 micro-g/mL of gentamicin. The culture was diluted at a 1:10 ratio by volume with fresh medium and further incubated until an OD600 nm of 0.3 was reached. A 96 well microtiter plate (Greiner) was prepared with the desired concentrations of inhibitors and bacteria were added to reach a final absorbance density (OD600 nm) of 0.3. Expression was induced at the edition of L-(+)-arabinose (4 mg/mL) and the plates were incubated at 37° C. for a period of 4 hours (OD600 nm of 0.45-0.5). The cultures were then assayed for beta-galactosidase activity according to the Miller assay method^46: […] were transferred to clear 96-well microtiter plates and the OD600 was recorded. […] was then added to a polypropylene-based 96-well microtiter plate containing […] of 0.1% SDS (w/v). Wells were thoroughly rinsed by pipetation, after which the chloroform was allowed to settle. […] upper layer was transferred to a fresh 96-well microtiter plate and […]-beta-D-galactopyranoside (ONPG, 4 mg/mL in phosphate buffer of pH 7) were added. The plates were incubated 35 minutes at 28° C. The reaction was terminated with the addition of […] sodium carbonate solution, and absorption at two wavelengths (550 nm, 429 nm) was recorded. Miller units were calculated using standard methods (Miller, J. H. Experiments in Molecular Genetics. 352-355 (Cold Spring Harbor Laboratories, 1972)). For antagonist experiments, a final concentration of 50 nM 3-oxo-C12-HSL was used.
# [2] = test system: LasI reporter coupled to the luxCDABE luminescence system; test: P. aeruginosa PAO-JP2 QS agonist/antagonist assay (luminescence reporter); type: cell-based; conditions: for IC50: Pseudomonas aeruginosa, read-out: IC50, 3-oxo-C12-HSL antagonist activity in PAO-JP2
# Description: P. aeruginosa PAO-JP2 QS Agonist/Antagonist Assay.
# PAO-JP2, a lasI/rhlI-deleted strain harboring plasmid pKD201 containing a LasI reporter coupled to the luxCDABE luminescence system (see above), was incubated overnight in LB medium containing 300 micro-g/ml of trimethoprim. A 96-well black microtiter plate (Greiner) was prepared as described for the PA01 inhibition assay. The relative luminescence was then plotted against the added inhibitor concentration; IC50 values were calculated using Grafit 6.0 (Erithacus Software). For antagonist experiments, a final concentration of 50 nM 3-oxo-C12-HSL was used.
# [3] = test system: LasI reporter coupled to the luxCDABE luminescence system; test: P. aeruginosa wild-type strain (PA01) QS inhibition assay (luminescence reporter); type: cell-based; conditions: for IC50: Pseudomonas aeruginosa, PAO1, read-out: IC50, inhibition of luminescence in wild type PAO1 reporter strain; for inhibition of lasI expression in PAO1-luxCDABE (virulence): FIG. 9
# Description: P. aeruginosa Wild-Type Strain (PA01) QS Inhibition Assay.
# The P. aeruginosa PA01 wild type strain harboring plasmid pKD201 containing a LasI reporter coupled to the luxCDABE luminescence system (Duan, K. & Surette, M. G. Environmental regulation of Pseudomonas aeruginosa PAO1 Las and Rhl quorum-sensing systems. J Bacteriol 189, 4827-36 (2007)), was incubated overnight in LB medium containing 300 micro-g/ml of trimethoprim. A 96-well black microtiter plate (Greiner) was prepared with the desired concentrations of inhibitors (up to 1 mM, above which growth inhibition was observed), and bacteria were added to reach a final absorbance density (OD600 nm) of 0.015. The plate was then incubated for a period of 12 hours at 37° C. During this time, luminescence measurements were performed at 10 minute intervals. The relative luminescence was then plotted against the added inhibitor concentration; IC50 values were calculated using Grafit 6.0 (Erithacus Software).
# [4] = molecular target: T2, LasR-LBD (Pseudomonas aeruginosa, UniProt P25084); test: Expression of LasR-LBD in presence of probe; covalent labeling by LC-MS and soluble protein by SDS-PAGE; type: binding, P. aeruginosa; conditions: for covalent modification of purified LasR-LBD (LC-MS): 10-100 micro-M compound in bacterial growth culture; for soluble LasR-LBD obtained on expression in presence of compound: SDS-PAGE of purified protein
# T2 construct: His6; made in house; host or cells: E. coli BL21 (pETM-11)
# Description: All MS analyses were performed on a LCQ Fleet mass spectrometer (Thermo Scientific) with an ESI source. Spectra were collected in positive ion mode and analyzed by Xcalibur and Promass software (Thermo Scientific). For LC/MS analyses a Surveyor Plus HPLC System (Thermo Scientific) was used, equipped with a Luna C18, 5 μm (150×4.6 mm) column at a flow rate of 0.5 mL/min, using a mobile phase linear gradient of 0.1% aqueous formic acid (solvent A) and CH3CN containing 0.1% formic acid (solvent B).
# The expression of full length LasR was previously found to yield largely insoluble protein in the presence or absence of the native ligand, 3-oxo-C12-HSL (Bottomley, M. J., Muraglia, E., Bazzo, R. & Carfi, A. Molecular insights into quorum sensing in the human pathogen Pseudomonas aeruginosa from the structure of the virulence regulator LasR bound to its autoinducer. J Biol Chem 282, 13592-600 (2007)). Therefore, expression was performed using a strain transformed with a pETM-11 vector encoding for a shortened, His6-tagged LasR construct, LasR-LBD (ligand-binding domain), spanning residues Met-1 to Lys-173. The plasmid was transferred into E. coli BL21 and cells were incubated in 1 mL rich LB medium for 1 hour. The cells were then grown on LB agar plates containing kanamycin (50 micro-g/mL). For expression, a single colony was selected and transferred into 5 mL of rich LB medium containing kanamycin and grown overnight. Proteins were expressed in the presence of either native 3-oxo-C12-HSL or different inhibitors and purified by Ni^2+ affinity chromatography as previously described (Bottomley, M. J., Muraglia, E., Bazzo, R. & Carfi, A. Molecular insights into quorum sensing in the human pathogen Pseudomonas aeruginosa from the structure of the virulence regulator LasR bound to its autoinducer. J Biol Chem 282, 13592-600 (2007), yielding ˜70 mg of purified protein per liter of LB medium using large scale expression conditions, and ˜0.5-1 mg of purified protein from 50 mL of LB medium using small scale expression conditions. The purification process was monitored by SDS-PAGE electrophoresis and the molecular mass of the purified proteins was confirmed by mass spectrometry.
# 1 mL of the overnight grown cell culture was used to inoculate 1 liter of rich LB medium containing kanamycin (50 micro-g/mL) and 10-100 micro-M of 3-oxo-C12-HSL or inhibitors 7a-c and 11a-g. Cells were grown to an optical density (OD600 nm) of 0.4, after which expression was induced at 21° C. by addition of 0.2 mM isopropyl 1-thio-beta-D-galactopyranoside (IPTG) and an additional amount of ligand/inhibitor was added to the media. After reaching an OD600 nm of 1.4 (approx. 6-8 hours), cells were centrifuged at 6000 rpm, washed and resuspended in lysis buffer containing 5 mM imidazole, 300 mM NaCl, 50 mM Tris-HCl, pH 8. Cells were ultrasonicated for 2 minutes at 70% amplitude for two cycles. The lysate was centrifuged at 12,000 rpm for 30 minutes, and the supernatants were purified by Ni^2+ affinity chromatography.
# Small scale expression was performed in 50 mL volume following the previous procedure. Cells were harvested by chemical lysis, adding 1 mL of lysis buffer (5 mM imidazole, 300 mM NaCl, 0.2% (v/v) Triton X-100, 0.75 μg/mL DNase-I, 0.05 mM MgCl2, 0.01 mM CaCl2, 50 mM Tris-HCl, pH 8, and 0.01% (v/v) protein inhibitor cocktail), and incubated for 60 minutes at 37° C. Cell debris was removed by centrifugation at 4,000 rpm for 15 minutes. […]
# [5] = test system: wild type P. aeruginosa PAO1 strain; test: Biofilm formation of wild type PAO1 in microtiter plates; type: cell-based; conditions: 50 micro-M, 24 h, versus DMSO
# Description: (§1) To assess whether the reactive probes inhibit QS-regulated activities, such as biofilm formation and pyocyanin production, the wild type P. aeruginosa PAO1 strain was incubated in the presence of itc-12 and 4-Br-PHL (both at 50 micro-M), or DMSO, as a control, in microtiter plates that allow analysis of 24 h biofilm formation and in vials allowing measurement of 36 h pyocyanin production. […] However, even a partial reduction in biofilm formation may be sufficient to render the bacteria vulnerable to host responses, as not only is total biofilm mass affected upon disruption of QS, but also is its architecture, its degree of porosity and its extent of flexibility and robustness.
# [6] = test system: wild type P. aeruginosa PAO1 strain; test: Pyocyanin production of wild type PAO1; type: cell-based; conditions: 50 micro-M, 36 h, versus DMSO
# Description: as §1
# [7] = molecular target: T1, LasR; conditions: read-out: IC50 reported by Geske et al.; E. coli-based LasR antagonist assay, literature value; cited from earlier work
# [8] = molecular target: T3, LasR-LBD Cys79Ser mutation (Pseudomonas aeruginosa, UniProt P25084, C79S); test: Expression of LasR-LBD Cys79Ser mutant in presence of probe, covalent labeling; type: binding, P. aeruginosa
# T3 construct: His6; made in house; host or cells: bacteria (E. coli BL21 as for wild-type LasR-LBD, inferred)
# [9] = molecular target: T4, LasR-LBD Cys79Ala mutant (Pseudomonas aeruginosa, UniProt P25084, C79A); test: Expression of LasR-LBD Cys79Ala mutant in presence of probe, covalent labeling; type: binding, P. aeruginosa
# T4 construct: His6; made in house; host or cells: bacteria (E. coli BL21 as for wild-type LasR-LBD, inferred)
# T4 sequence (P25084 1-173 C79A): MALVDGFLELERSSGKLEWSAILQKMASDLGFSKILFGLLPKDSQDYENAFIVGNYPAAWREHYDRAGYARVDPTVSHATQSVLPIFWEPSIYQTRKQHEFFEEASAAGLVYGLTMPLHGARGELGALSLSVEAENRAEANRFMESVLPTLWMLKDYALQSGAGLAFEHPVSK
# T1 sequence (P25084 whole entry): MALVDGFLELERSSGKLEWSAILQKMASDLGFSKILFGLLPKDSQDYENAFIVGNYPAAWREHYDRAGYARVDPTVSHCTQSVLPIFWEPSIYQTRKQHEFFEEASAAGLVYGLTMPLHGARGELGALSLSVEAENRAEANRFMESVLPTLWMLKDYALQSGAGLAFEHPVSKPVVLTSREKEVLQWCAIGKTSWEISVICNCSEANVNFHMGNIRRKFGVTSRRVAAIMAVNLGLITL
# T2 sequence (P25084 1-173): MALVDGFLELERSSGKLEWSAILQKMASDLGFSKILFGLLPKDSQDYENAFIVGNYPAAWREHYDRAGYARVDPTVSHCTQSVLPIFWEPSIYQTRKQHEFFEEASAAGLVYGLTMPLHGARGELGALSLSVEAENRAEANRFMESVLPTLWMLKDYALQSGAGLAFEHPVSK
# T3 sequence (P25084 1-173 C79S): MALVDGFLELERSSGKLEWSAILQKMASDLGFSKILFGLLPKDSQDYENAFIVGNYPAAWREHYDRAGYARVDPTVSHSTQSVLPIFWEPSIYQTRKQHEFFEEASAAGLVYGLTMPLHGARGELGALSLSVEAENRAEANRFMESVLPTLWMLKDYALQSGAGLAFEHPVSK
Structure (SMILES),IC50 [2] [µM],IC50 [1] [µM],IC50 [3] [µM],covalent modification of purified LasR-LBD (LC-MS) [4],also measured
O=C(CCCCCCCCCNC(=O)CCl)CC(=O)N[C@H]1CCOC1=O [hal-12-Cl],70 ± 27,–,–,–,"IC50 ([1]; antagonism of LasR activation by 50 nM 3-oxo-C12-HSL, E. coli reporter, read-out: IC50, E. coli-based LasR antagonist studies): 1.1 ± 0.1 µM"
O=C(CCCCCCCCNC(=O)CBr)CC(=O)N[C@H]1CCOC1=O [hal-11-Br],–,26.8 ± 1.3,–,–,–
"O=C(CCCCCCCCCCN=C=S)CC(=O)NC1CCOC1=O (stereo not drawn) [itc-13, 13-isothiocyanato-3-oxo-N-(2-oxotetrahydrofuran-3-yl)tridecanamide]",30 ± 7,19.2 ± 3.9,45.2 ± 0.7,–,–
"O=C(CCCCCCCCN=C=S)CC(=O)NC1CCOC1=O (stereo not drawn) [itc-11, 11-isothiocyanato-3-oxo-N-(2-oxotetrahydrofuran-3-yl)undecanamide]",–,39.1 ± 9.4,~300,covalently modified,–
"O=C(Cc1ccc(Br)cc1)NC1CCOC1=O (stereo not drawn) [4-Br-PHL, 2-(4-bromophenyl)-N-(2-oxo-tetrahydrofuran-3-yl)-acetamide, reference compound]",~200,4.8 ± 0.5,~250,–,inhibition of biofilm formation [5]: significantly inhibited; inhibition of pyocyanin production [6]: significantly inhibited; soluble LasR-LBD obtained on expression in presence of compound [4]: no soluble LasR was observed; IC50 [7]: 3.9 µM
"[N-]=[N+]=NCCCCCCCCCC(=O)CC(=O)NC1CCOC1=O (stereo not drawn) [azido-C12, 12-azido-3-oxo-N-(2-oxotetrahydrofuran-3-yl)dodecanamide]",–,–,–,no covalently labeled product,inhibitory activity compared with itc-12 ([2]; data not shown): significantly lower than that of itc-12
"O=C(CCCCCCCCCS)CC(=O)NC1CCOC1=O (stereo not drawn) [thiol-11, 12-Mercapto-3-Oxo-N-(2-Oxotetrahydrofuran-3-yl)Dodecanamide]",–,–,–,–,inhibition of lasI expression in PAO1-luxCDABE (virulence) [3]: dose-dependent manner
"O=C(CCCCCCCCCN=C=S)CC(=O)NC1CCOC1=O (stereo not drawn) [itc-12, 12-isothiocyanato-3-oxo-N-(2-oxotetrahydrofuran-3-yl)dodecanamide]",134 ± 6,29.8 ± 0.5,113 ± 19,covalently modified,"inhibition of biofilm formation [5]: significantly inhibited; covalent modification of LasR-LBD Cys79Ser [8]: no covalent modification being observed; soluble protein, LasR-LBD Cys79Ser [8]: yielded expression of soluble protein; inhibition of lasI expression in PAO1-luxCDABE (virulence) [3]: dose-dependent manner; agonism in PAO-JP2-based reporter ([2]; markedly reduced levels compared to natural autoinducer): partial agonism patterns; soluble protein, LasR-LBD Cys79Ala mutant [9]: Soluble protein was, however, obtained; covalent modification of LasR-LBD Cys79Ala mutant ([9]; data not shown): no covalent modification was detected; inhibition of pyocyanin production [6]: significantly inhibited; soluble LasR-LBD obtained on expression in presence of compound [4]: larger amounts of soluble LasR-LBD"
O=C(CCCCCCCCNC(=O)CCl)CC(=O)N[C@H]1CCOC1=O [hal-11-Cl],–,3.1 ± 0.1,–,–,–
